Results on two compounds are retold here after ChEMBL document CHEMBL4270505, “Towards antibody-drug conjugates and prodrug strategies with extracellular stimuli-responsive drug delivery in the tumor microenvironment for cancer therapy” (Eur J Med Chem, 2017).

Molecules are shown by their SMILES. pIC50: −log10 of the molar value.

Test [1] in a line: Antitumor activity against human CL1-5 cells xenografted in mouse assessed as disease cure rate. It counts as functional.
The test system of test [2] is HT-29. Briefly: Cytotoxicity in human HT-29 cells assessed as reduction in cell viability. It counts as functional, cell-based.
Test [3] deals with HT-29. Briefly: Potency index, ratio of IC50 for paclitaxel to IC50 for test compound for cytotoxicity in human HT-29 cells. It counts as functional.

Take `Nc1cccc2nc3c(cc12)Cn1c-3cc2c(c1=O)COC(=O)[C@]2(O)CC(=O)OCc1ccc(O[C@@H]2O[C@H](C(=O)O)[C@@H](O)[C@H](O)[C@H]2O)c([N+](=O)[O-])c1`: the Activity in test [1] was 70 - 85%. As for `CC(=O)O[C@H]1C(=O)[C@@]2(C)[C@H]([C@H](OC(=O)c3ccccc3)[C@]3(O)C[C@H](OC(=O)[C@H](OC(=O)OCCN(C)C(=O)OCc4ccc(O[C@@H]5O[C@H](C(=O)O)[C@@H](O)[C@H](O)[C@H]5O)cc4)[C@@H](NC(=O)c4ccccc4)c4ccccc4)C(C)=C1C3(C)C)[C@]1(OC(C)=O)CO[C@@H]1C[C@@H]2O`, the negative logarithm of the IC50 (pIC50) in the test with HT-29 [2] was 7.59. Moreover, the “Ratio IC50” value with HT-29 [3] is reported as 164.

As usually defined, the pIC50 is the negative decadic logarithm of the IC50, by convention in mol/L.
